Patent publication US20230181475A1, “COMPOSITION COMPRISING METHYLFOLATE” (ALFASIGMA S.P.A., priority 2020, published 2023)

What was measured:
[1] = tested on: C57Black/6J mice subjected to CUS; assay: Forced swimming test (FST) in mice subjected to Chronic Unpredictable Stress (CUS); format: in vivo; conditions: MTHF 3 mg/kg, LAC 30 mg/kg; for effect on immobility time in FST / effects of chronic stress (in words): 3 days of treatment; for Total Immobility Time (sec) + SD: i.p. 3 days of treatment, last 4 minutes of 6 min test, n=8
Description: The animal study was performed in a validate experimental model subject to Chronic Unpredictable Stress (CUS), as described in J H Cryan et al. in J. Neubiorev. 2005, 03, 009, for a period of 4 weeks to induce the depressive phenotype CUS. The CUS allows the depressive phenotype responsive to standard antidepressant treatments to be reproduced in vivo in mammals. The animals were divided in five groups and the group which received the combination of MTHF with LAC was compared with the groups which received MTHF and LAC separately. All the groups were compared with the group which received saline solution and the group which not submitted to CUS.
The mice were subjected to CUS for 4 weeks, and the drug treatment started at the 3rd week of CUS and maintained until the end of the 4-week treatment.
To assess the antidepressant effects of the selected product LAC and MTHF the animals were submitted to the Forced swimming test (“FST”) as described in J H Cryan et al. in J. Neubiorev. 2005, 03, 009 and measured the Total Immobility Time expressed in the […] of animals.
Forty, 7-week-old male C57Black/6J, mice were subjected to CUS (“Chronic Unpredictable Mild Stress”), a validate model that allow the depressive phenotype as described in J H Cryan et al. in J. Neubiorev. 2005, 03, 009.
The mice were subjected to CUS for 4 weeks, during which different types of stress were applied to the animals twice-a-day in a random and unpredictable manner: one session during the day lasting 1-3 hours, and one session during the night (lasting 12 hours), with at least 6 hours of interval between the two sessions. […]
To assess the antidepressant behavioural effects of the selected product LAC and MEF the animals were submitted to the Forced swimming test (“FST”) as described in J H Cryan et al. in J. Neubiorev. 2005, 03, 009 and the Total Immobility Time measured in the 5 group of animals.
During the test the mice were placed individually for 6 minutes in transparent plexiglass cylinders (25 cm high and 22 cm in diameter) filled with warm water (28° C.), in sufficient quantity to prevent the mouse from touching the bottom of the cylinder with hind legs. The animal was videotaped, and then the immobility time (expressed in seconds) was measured during the last 4 minutes of the test.

[2] = tested on: BDNF protein; assay: Western blot of BDNF protein in frontal cortex of CUS mice; format: in vivo; conditions: 14 days i.p. treatment, MTHF 3 mg/kg, LAC 30 mg/kg
Description: Mice after 4 weeks of CUS and 2 week of pharmacological treatments, as described before, at the end of Week 5 the animals were sacrificed and the level of BDNF protein were measured in Frontal Cortex by western blot.
Drug treatment started at the 3rd week of CUS and it was maintained for 2 weeks, the study ending at Week 5 for the start of the experiment. Behavioural tests were performed 3 days after the beginning of treatments, while post-mortem protein studies in the mouse brain were performed after 14 days of treatment, at the end of Week 5.
Mice were treated as described in Example 19. After 4 weeks of CUS and 2 week of pharmacological treatments (as described in Example 19), at the end of Week 5 the animals were sacrificed and the level of BDNF protein were measured in Hippocampus and Frontal Cortex by western blot. Table 28 reports the protein levels of BDNF, a neuronal trophic factor related to chronic stress and depression, in the Frontal Cortex of mice.
The antibody recognizes the mature form of the 17 KDa BDNF.

Compound | effect on immobility time in FST / effects of chronic stress (in words) [1] | Total Immobility Time (sec) + SD [1] | Western blot BDNF in frontal cortex, Optical Density bands + SD [2]
CC(=O)O[C@H](CC(=O)[O-])C[N+](C)(C)C [LAC, Acetyl L-carnitine] | not antagonised | 245.75 + 30.34 sec | 113.29 + 28.95
calcium L-5-methyl-(6S)-tetrahydrofolate [MTHF] | not antagonised | 230 + 14.20 sec | 138.46 + 18.26
